pIC50: −log10 of the molar value. Structures can show the parent of a compound that is named as a salt.

This assay concerns the target T1, HCV polymerase (Hepatitis C virus genotype 1b, UniProt P26663).
T1 construct: a region encoding NS5B (J Virol 1991 March, 65(3), 1105-13, 544 amino acids after deletion of 47 amino acids on the C-terminal); 6xHis (C); made in house; host or cells: Escherichia coli
Nature of the assay: biochemical. On the set-up: species or system HCV BK strain. The procedure, abridged:
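His-tagged NS5B (BK strain, 47-aa C-terminal deletion, E. coli-expressed) at 0.5 μg/ml copied 5 μg/ml run-off RNA bearing the HCV 3′ UTR with 2 μM UTP plus [3H]UTP, 50 μM ATP/GTP, in pH 7.5 Tris with 5 mM MgCl2, 25 °C, 90 min. TCA-precipitated RNA was counted and IC50 calculated.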

T1 sequence (P26663 2420-2963): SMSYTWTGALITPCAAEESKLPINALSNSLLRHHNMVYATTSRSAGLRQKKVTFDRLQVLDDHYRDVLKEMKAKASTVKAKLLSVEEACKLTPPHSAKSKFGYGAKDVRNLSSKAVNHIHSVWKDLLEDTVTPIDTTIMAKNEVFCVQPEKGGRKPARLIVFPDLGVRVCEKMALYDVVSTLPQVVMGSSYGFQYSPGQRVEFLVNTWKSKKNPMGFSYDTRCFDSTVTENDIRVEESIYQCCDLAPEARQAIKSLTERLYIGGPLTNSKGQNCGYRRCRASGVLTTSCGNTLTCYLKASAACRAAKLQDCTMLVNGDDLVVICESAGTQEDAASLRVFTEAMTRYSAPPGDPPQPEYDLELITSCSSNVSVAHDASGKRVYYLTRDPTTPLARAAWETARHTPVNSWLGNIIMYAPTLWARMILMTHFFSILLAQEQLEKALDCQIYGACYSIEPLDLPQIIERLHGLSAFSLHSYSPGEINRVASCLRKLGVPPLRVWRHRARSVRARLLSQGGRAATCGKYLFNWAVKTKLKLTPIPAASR

Usually pIC50 stands for the negative decadic logarithm of the IC50, by convention in mol/L. A lower pIC50 goes with a high IC50. `CN1CCCCC1CCN1CCn2c(c(C3CCCCC3)c3ccc(C(=O)O)cc32)-c2ccc(Cl)cc21` (stereo not shown) [Example 1-312, 3-chloro-13-cyclohexyl-5-[2-(1-methylpiperidin-2-yl)ethyl]-6,7-dihydro-5H-benzo[5,6][1,4]diazepino[7,1-a]indole-10-carboxylic acid dihydrochloride]: the pIC50 is above 7.00.

On to `O=C(O)c1ccc2c(C3CCCCC3)c3n(c2c1)CCOc1cc(Cl)ccc1-3` [Example 9-4, 3-chloro-12-cyclohexyl-6,7-dihydro-5-oxa-7a-azadibenzo[a,e]azulene-9-carboxylic acid], for which the pIC50 was above 7.00. The result for `CCCc1ccc2c(c1)N(CCN1CCCC(CC)C1)CCn1c-2c(C2CCCCC2)c2ccc(C(=O)O)cc21` (stereo not shown) [Example 1-357, 13-cyclohexyl-5-[2-(3-ethylpiperidin-1-yl)ethyl]-3-propyl-6,7-dihydro-5H-benzo[5,6][1,4]diazepino[7,1-a]indole-10-carboxylic acid dihydrochloride] reads above 7.00; that for `COc1ccc2c(c1)OCCn1c-2c(C2CCCCC2)c2ccc(C(=O)NC(C)(C)C(=O)Nc3ccc(C(=O)O)cc3)cc21` [Example 2-350, 4-{2-[(12-cyclohexyl-3-methoxy-6,7-dihydro-5-oxa-7a-azadibenzo[a,e]azulene-9-carbonyl)amino]-2-methylpropionylamino}benzoic acid], above 7.00; that for `COCCCOc1ccc(C[C@H](NC(=O)c2ccc3c(C4CCCCC4)c4n(c3c2)CCOc2cc(OC)ccc2-4)C(=O)OC)cc1` [Example 2-424, methyl (S)-2-[(12-cyclohexyl-3-methoxy-6,7-dihydro-5-oxa-7a-azadibenzo[a,e]azulene-9-carbonyl)amino]-3-[4-(3-methoxypropoxy)phenyl]propionate], above 7.00. For the compound `O=C(O)c1ccc2c(C3CCCCC3)c3n(c2c1)CCN(CCN1CC=CCC1)c1ccccc1-3` [Example 1-205, 13-cyclohexyl-5-[2-(3,6-dihydro-2H-pyridin-1-yl)ethyl]-6,7-dihydro-5H-benzo[5,6][1,4]diazepino[7,1-a]indole-10-carboxylic acid], the pIC50 is above 7.00. Consider `COc1ccc2c(c1)OCCn1c-2c(C2CCCCC2)c2ccc(C(=O)NC(C)(C)c3ccc(CCC(=O)O)cc3)cc21` [Example 2-423, 3-(4-{1-[(12-cyclohexyl-3-methoxy-6,7-dihydro-5-oxa-7a-azadibenzo[a,e]azulene-9-carbonyl)amino]-1-methylethyl}phenyl)propionic acid], for which the pIC50 is above 7.00. For `O=C(O)c1ccc2c(C3CCCCC3)c3n(c2c1)C(O)c1ccccc1-3` (stereo not shown) [Example 5-6, 11-cyclohexyl-6-hydroxy-6H-isoindolo[2,1-a]indole-3-carboxylic acid] the value was 6.00 to 7.00. With `CS(=O)(=O)c1cccc(COc2ccc3c(c2)N(CCN2CCCCC2)CCn2c-3c(C3CCCCC3)c3ccc(C(=O)O)cc32)c1` [Example 1-418, 13-cyclohexyl-3-(3-methanesulfonylbenzyloxy)-5-[2-(piperidin-1-yl)ethyl]-6,7-dihydro-5H-benzo[5,6][1,4]diazepino[7,1-a]indole-10-carboxylic acid dihydrochloride], the negative-log IC50 (pIC50) is above 7.00.

Regarding `CN(C)CCN(C)CCN1CCn2c(c(C3CCCCC3)c3ccc(C(=O)O)cc32)-c2ccccc21` [Example 1-223, 13-cyclohexyl-5-{2-[N-(2-dimethylaminoethyl)-N-methylamino]ethyl}-6,7-dihydro-5H-benzo[5,6][1,4]diazepino[7,1-a]indole-10-carboxylic acid trihydrochloride], the pIC50 was above 7.00. For `CC(=O)N1CCCN(CCN2CCn3c(c(C4CCCCC4)c4ccc(C(=O)O)cc43)-c3ccc(C)cc32)CC1` [Example 1-504, 5-[2-(4-acetyl-1,4-diazepan-1-yl)ethyl]-13-cyclohexyl-3-methyl-6,7-dihydro-5H-benzo[5,6][1,4]diazepino[7,1-a]indole-10-carboxylic acid dihydrochloride], the pIC50 is above 7.00. The result for `Cc1ccc2c(c1)N(CCN1CCC[C@@H](CCN(C)C)C1)CCn1c-2c(C2CCCCC2)c2ccc(C(=O)O)cc21` [Example 1-555, 13-cyclohexyl-5-{2-[(S)-3-(2-dimethylaminoethyl)piperidin-1-yl]ethyl}-3-methyl-6,7-dihydro-5H-benzo[5,6][1,4]diazepino[7,1-a]indole-10-carboxylic acid dihydrochloride] reads above 7.00; that for `CN(CCN1CCn2c(c(C3CCCCC3)c3ccc(C(=O)O)cc32)-c2ccccc21)C1CCNC1` (stereo not shown) [Example 1-285, 13-cyclohexyl-5-{2-[N-methyl-N-(pyrrolidin-3-yl)amino]ethyl}-6,7-dihydro-5H-benzo[5,6][1,4]diazepino[7,1-a]indole-10-carboxylic acid dihydrochloride], above 7.00; that for `Cc1ccc2c(c1)N(CCN1CCCC(=O)CC1)CCn1c-2c(C2CCCCC2)c2ccc(C(=O)O)cc21` [Example 1-536, 13-cyclohexyl-3-methyl-5-[2-(4-oxoazepan-1-yl)ethyl]-6,7-dihydro-5H-benzo[5,6][1,4]diazepino[7,1-a]indole-10-carboxylic acid dihydrochloride], above 7.00.

`CC(C)N1CCCC(CCN2CCn3c(c(C4CCCC4)c4ccc(C(=O)O)cc43)-c3ccc(Cl)cc32)C1` (stereo not shown) [Example 1-414, 3-chloro-13-cyclopentyl-5-[2-(1-isopropylpiperidin-3-yl)ethyl]-6,7-dihydro-5H-benzo[5,6][1,4]diazepino[7,1-a]indole-10-carboxylic acid monohydrochloride]: the pIC50 was above 7.00. The result for `COC(=O)Cn1c(CNC(=O)c2ccc3c(C4CCCCC4)c4n(c3c2)CCOc2ccccc2-4)nc2ccccc21` [Example 2-251, methyl (2-{[(12-cyclohexyl-6,7-dihydro-5-oxa-7a-azadibenzo[a,e]azulene-9-carbonyl)amino]methyl}benzimidazol-1-yl)acetate] reads above 7.00; that for `COc1ccc2c(c1)OCCn1c-2c(C2CCCCC2)c2ccc(C(=O)N[C@@H](Cc3ccc(O)cc3)c3noc(=O)[nH]3)cc21` [Example 2-429, N—[(S)-2-(4-hydroxyphenyl)-1-(5-oxo-4,5-dihydro-1,2,4-oxadiazol-3-yl)ethyl]-12-cyclohexyl-3-methoxy-6,7-dihydro-5-oxa-7a-azadibenzo[a,e]azulene-9-carboxamide], above 7.00.

The compound `COCC1CCN(CCN2CCn3c(c(C4CCCCC4)c4ccc(C(=O)O)cc43)-c3ccc(Cl)cc32)CC1` [Example 1-314, 3-chloro-13-cyclohexyl-5-[2-(4-methoxymethylpiperidin-1-yl)ethyl]-6,7-dihydro-5H-benzo[5,6][1,4]diazepino[7,1-a]indole-10-carboxylic acid dihydrochloride] gave a pIC50 above 7.00. The result for `COc1ccc2c(c1)OCCn1c-2c(C2CCCCC2)c2ccc(C(=O)NC(C)(C)c3nc4ccc(C(=O)N(C)C)cc4[nH]3)cc21` [Example 2-346, N-[1-(6-dimethylcarbamoyl-1H-benzimidazol-2-yl)-1-methylethyl]-12-cyclohexyl-3-methoxy-6,7-dihydro-5-oxa-7a-azadibenzo[a,e]azulene-9-carboxamide] reads above 7.00; that for `COC(=O)COc1ccc2[nH]cc(C[C@H](NC(=O)c3ccc4c(C5CCCCC5)c5n(c4c3)CCOc3cc(OC)ccc3-5)c3csc(C)n3)c2c1` [Example 2-417, methyl {3-[(S)-2-[(12-cyclohexyl-3-methoxy-6,7-dihydro-5-oxa-7a-azadibenzo[a,e]azulene-9-carbonyl)amino]-2-(2-methylthiazol-4-yl)ethyl]-1H-indol-5-yloxy}acetate], above 7.00; that for `Cc1ccc2c(c1)N(CCCN1CCCCC1)CCn1c-2c(C2CCCCC2)c2ccc(C(=O)O)cc21` [Example 1-298, 13-cyclohexyl-3-methyl-5-[3-(piperidin-1-yl)propyl]-6,7-dihydro-5H-benzo[5,6][1,4]diazepino[7,1-a]indole-10-carboxylic acid dihydrochloride], above 7.00. The compound `CN1CCn2c(c(C3CCCCC3)c3ccc(C(=O)O)cc32)-c2ccc(OCc3cc(S(C)(=O)=O)ccc3N3CCOCC3)cc21` [Example 1-103, 13-cyclohexyl-3-[5-methanesulfonyl-2-(morpholin-4-yl)benzyloxy]-5-methyl-6,7-dihydro-5H-benzo[5,6][1,4]diazepino[7,1-a]indole-10-carboxylic acid dihydrochloride] gave a pIC50 above 7.00.

Compound `CC(C)OC1CCCN(CCN2CCn3c(c(C4CCCCC4)c4ccc(C(=O)O)cc43)-c3ccc(Cl)cc32)C1` (stereo not shown) [Example 1-393, 3-chloro-13-cyclohexyl-5-[2-(3-isopropoxypiperidin-1-yl)ethyl]-6,7-dihydro-5H-benzo[5,6][1,4]diazepino[7,1-a]indole-10-carboxylic acid monohydrochloride] had a pIC50 above 7.00. With `CCCC1CCCN(CCN2CCn3c(c(C4CCCCC4)c4ccc(C(=O)O)cc43)-c3ccccc32)C1` (stereo not shown) [Example 1-331, 13-cyclohexyl-5-[2-(3-propylpiperidin-1-yl)ethyl]-6,7-dihydro-5H-benzo[5,6][1,4]diazepino[7,1-a]indole-10-carboxylic acid dihydrochloride], the pIC50 is above 7.00.

`CN(C(=O)CN1CCOCC1)c1ccc(N2CCOCC2)c(COc2ccc3c(c2)OCCn2c-3c(C3CCCCC3)c3ccc(C(=O)O)cc32)c1` [Example 2-22, 12-cyclohexyl-3-[5-{N-methyl-N-[2-(morpholin-4-yl)acetyl]amino}-2-(morpholin-4-yl)benzyloxy]-6,7-dihydro-5-oxa-7a-azadibenzo[a,e]azulene-9-carboxylic acid dihydrochloride]: the pIC50 was above 7.00.

These data come from patent US20070049593A1 (priority 2004, published 2007).
